What was measured:
MARS = MARS (Homo sapiens, UniProt P56192); assay: TPP-CCR in living HL-60 cells
STX4 = STX4 (Homo sapiens, UniProt Q12846); assay: TPP-CCR in living HL-60 cells
MTMR1 = MTMR1 (Homo sapiens, UniProt Q13613); assay: TPP-CCR in living HL-60 cells
MAPKAPK2p = assay: CETSA in living HL-60 cells, immunoblot; format: cell-based, Homo sapiens
Description: First, we conducted CETSA experiments according to Jafari et al.. […] Subsequent SDS-PAGE and immunoblotting were performed according to optimized conditions allowing for parallel detection of MAPK14, MAPKAPK2, MAPKAPK3, and GSK-3α (Supplementary Figure S1).
HL-60 cells (ATCC No. CCL-240) were expanded to about […] in 80 mL cell culture medium (RPMI-1640 supplemented with 10% (v/v) FBS, 1% (v/v) penicillin-streptomycin and 1% (v/v) L-glutamine solution) and divided into four aliquots (20 mL each, 25 million cells per flask). […] The same volume of DMSO was added to the remaining aliquot serving as the vehicle (DMSO) control. After incubation (1 h, 37 °C, 5% CO2, in cell culture CO2 incubator), the cell suspensions were transferred into 50 mL conical tubes, cell number and viability were determined, and after centrifugation (300 relative centrifugal force (rcf), 3 min, room temperature (r.t.)), the supernatants were completely removed and discarded. The cells were washed using 20 mL Dulbecco’s phosphate-buffered saline (PBS), respectively, by resuspension and centrifugation (300 rcf, 3 min, r.t.). After the complete removal of the supernatants, the cells were transferred into pre-weighed 2 mL Eppendorf tubes using 0.5 mL PBS (r.t.), respectively, for resuspending. After centrifugation (300 rcf, 3 min, r.t.) and removing as much as possible of the supernatants, the cell wet weights were determined.
The suspensions were shortly centrifuged (1 s or less) using a benchtop centrifuge that was equipped with an inset for PCR tubes to release trapped air and to achieve an even liquid level without pelleting the cells. The 100 µL cell suspensions were then temperature treated by a 7 min pre-incubation at r.t., a 3 min incubation at the following different temperatures in the PCR cycler (DNA Engine Tetrad 2, lid temperature 70 °C, gradient block 1: 36–55 °C, gradient block 2: 48–67 °C), and a 3 min post-incubation at r.t. in a metal heating block for uniform heat dissipation.
The cells were lysed by four freeze/thaw cycles consisting of thawing the samples (in a heat block set to 25 °C and shaking at 1250 rpm) accompanied by mixing them several times by inversion and then shock freezing them again in liquid nitrogen. […]
For each sample set comprising either ten temperature range samples or ten compound concentration range samples, the same volume of the cell extracts containing the fraction of soluble, non-denatured proteins was used for further analysis. This volume was determined using the two lowest temperature samples (36.5 and 41.2 °C) per temperature range sample set so that they contained an average of 5 µg total protein (e.g., 2.78 µL for all temperature range samples of a sample set whose two lowest temperature samples contain an average of 1.8 mg/mL protein). […]

C14orf166 = C14orf166 (Homo sapiens, UniProt Q9Y224); details: living HL-60 cells, […] °C, TMT-MS
From the text: Therefore, we performed TPP with compound concentration range (TPP-CCR) experiments according to published procedures. In brief, after preparing tryptic peptides from the non-denatured protein fractions (used for immunoblotting in the previous sections) applying the SP3 method, the peptides were labeled using TMT10plex, coding for inhibitor concentration, and the samples belonging to a TMT set were combined, offline high-pH fractionated, and analyzed by MS.
HL-60 cells were expanded as described above for CETSA and TPP-TR to 1.25 million cells per milliliter. […] A number of 2.5 million cells in 2 mL of medium were added to each tube and incubated (1 h, 37 °C). […]
For each sample set comprising ten compound concentration range samples, a same volume of the cell extracts containing the fraction of soluble, non-denatured proteins, corresponding to an average of 5 µg total protein, was used for further analysis. The calculated volume was respectively transferred into PCR tubes of a tube strip and supplemented with SDS sample buffer without DTT and bromophenol blue (final concentrations: 7.5% glycerol, 3% SDS, 37.5 mM Tris/HCl pH 7.0) and ddH2O to a final volume of 10 µL, respectively. […]

MAPKAPK2 = tested on: MAPKAPK2; set-up: method as in PMID 23398362; details: cited from earlier work
MAPK14 = details: cited from earlier work
[1] = living HL-60 cells, […] °C, TMT-MS
[2] = living HL-60 cells, 20 µM inhibitor

Sequence of MARS (P56192 whole entry): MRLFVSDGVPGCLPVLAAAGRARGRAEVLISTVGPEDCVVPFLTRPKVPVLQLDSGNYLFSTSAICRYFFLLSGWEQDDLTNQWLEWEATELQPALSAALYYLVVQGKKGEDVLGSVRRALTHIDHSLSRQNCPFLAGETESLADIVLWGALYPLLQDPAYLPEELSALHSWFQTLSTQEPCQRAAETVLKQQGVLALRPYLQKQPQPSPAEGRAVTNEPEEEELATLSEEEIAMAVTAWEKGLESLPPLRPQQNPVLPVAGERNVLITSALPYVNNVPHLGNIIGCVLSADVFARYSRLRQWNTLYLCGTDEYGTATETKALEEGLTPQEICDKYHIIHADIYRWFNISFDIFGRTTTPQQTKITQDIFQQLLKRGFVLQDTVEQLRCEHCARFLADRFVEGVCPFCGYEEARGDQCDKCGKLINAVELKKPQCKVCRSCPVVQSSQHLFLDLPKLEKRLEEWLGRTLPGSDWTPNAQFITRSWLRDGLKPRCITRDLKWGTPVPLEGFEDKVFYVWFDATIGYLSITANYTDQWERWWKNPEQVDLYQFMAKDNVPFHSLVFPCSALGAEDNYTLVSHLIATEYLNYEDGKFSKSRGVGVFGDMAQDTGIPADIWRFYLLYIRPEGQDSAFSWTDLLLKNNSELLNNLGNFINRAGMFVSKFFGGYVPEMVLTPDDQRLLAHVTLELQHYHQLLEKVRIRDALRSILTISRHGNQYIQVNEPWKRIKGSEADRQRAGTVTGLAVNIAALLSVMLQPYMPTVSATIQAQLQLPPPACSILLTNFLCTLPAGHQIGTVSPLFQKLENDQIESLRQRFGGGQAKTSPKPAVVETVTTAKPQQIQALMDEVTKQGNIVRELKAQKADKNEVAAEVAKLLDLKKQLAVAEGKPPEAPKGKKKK
Sequence of STX4 (Q12846 whole entry): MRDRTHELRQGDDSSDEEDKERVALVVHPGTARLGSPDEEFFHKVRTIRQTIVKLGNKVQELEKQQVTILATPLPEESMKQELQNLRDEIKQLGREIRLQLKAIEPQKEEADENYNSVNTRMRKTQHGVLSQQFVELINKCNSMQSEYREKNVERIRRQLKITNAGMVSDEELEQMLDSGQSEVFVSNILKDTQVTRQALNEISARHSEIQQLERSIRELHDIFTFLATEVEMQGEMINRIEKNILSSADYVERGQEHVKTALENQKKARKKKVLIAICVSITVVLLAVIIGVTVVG
Sequence of C14orf166 (Q9Y224 whole entry): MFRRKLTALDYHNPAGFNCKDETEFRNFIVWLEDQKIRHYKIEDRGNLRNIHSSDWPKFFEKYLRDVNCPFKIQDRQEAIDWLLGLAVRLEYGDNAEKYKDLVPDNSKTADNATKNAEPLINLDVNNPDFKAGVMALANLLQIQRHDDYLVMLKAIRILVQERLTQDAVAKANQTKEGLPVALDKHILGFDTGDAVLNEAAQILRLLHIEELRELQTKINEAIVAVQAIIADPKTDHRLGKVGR

Cn1c(NC[C@@H](N)Cc2ccccc2)nc(-c2ccncc2)c(-c2ccc3ccccc3c2)c1=O [AMG-548]
EC50 (MARS): 209 nM
Hill slope (MARS) (MARS; [1]): 0.40
EC50 (STX4): 132 nM
Hill slope (STX4) (STX4; [1]): 0.27
EC50 (MTMR1): 105 nM
Hill slope (MTMR1) (MTMR1; [1]): 0.38

Cc1cnc(Nc2ccc(F)cc2Cl)nc1-c1c[nH]c(C(=O)N[C@H](CO)c2cccc(Cl)c2)c1 [ERK 11e]
Tm (MAPKAPK2p; MAPKAPK2p, living cells): 47.18 °C
ΔTm to DMSO (MAPKAPK2p; MAPKAPK2p, living cells): -1.07 °C
Tm (MAPKAPK2p) (MAPKAPK2p; [2]): 47.18 °C
ΔTm to DMSO (MAPKAPK2p) (MAPKAPK2p; [2]): −1.07 °C

C[S+]([O-])c1ccc(-c2nc(-c3ccncc3)c(-c3ccc(F)cc3)[nH]2)cc1 (stereo not shown) [SB203580]
Hill slope (C14orf166) (C14orf166): 0.33
activity against MAPKAPK2 (MAPKAPK2): inactivity
activity against MAPK14 (MAPK14): high activity
